Data from patent US10968203B2, “Pyrimidinyl-pyridyloxy-naphthyl compounds and methods of treating IRE1-related diseases and disorders” (Genentech, Inc., priority 2017, dated 2021).
Counter-ions that a name gives are not always drawn.

system: XBP1s-luc 293 LUC; experiment: cellular PD assay, XBP1s-LUC reporter (Example 903); assay type: cell-based; conditions: Table 1; read-out: XBP1s-luc 293 LUC (IC50)
Procedure: Inhibition of IRE1α RNase activity was determined in an enzyme assay that measured cleavage of the XBP1 stem loop by autophosphorylated IRE1α. This assay format was chosen to ensure that inhibitors of either the IRE1α kinase or the RNase domains would be identified. Binding to the ATP pocket and inhibition of IRE1α kinase activity are not necessarily required to inhibit the RNase activity. Compounds were also profiled in cellular assays by direct measurement of XBP s (B-DNA assay) or by quantification of the luciferase signal in HT1080 XBP1-Luc, which carries a luciferase fusion that is only in frame and expressed from the spliced XBP1 transcript.
Biological activity of Formula I or I′ compounds was measured by an IRE1 biochemical binding assay (Example 901), a biochemical RNase assay (Example 902), a cellular PD assay, XBP1s-LUC reporter (Example 903), and an IRE1α-based inhibition of multiple myeloma (MM) cell proliferation assay.
All of the exemplary Formula I or I′ compounds in Tables 1 and 2 were made and characterized by LCMS [M+H]^+ (liquid chromatography mass spectroscopy) with detection of parent ion. All of the exemplary Formula I compounds in Tables 1 and 2 were prepared according to the procedures of the Schemes, General Procedures, and Examples. All of the exemplary Formula I or I′ compounds in Tables 1 and 2 were tested for binding to IRE1 (inositol requiring enzyme 1 alpha) and biological activity according to the assays and protocols of Example 901-903. Exemplary Formula I or I′ compounds in Tables 1 and 2 have the following structures, corresponding IUPAC names (ChemBioDraw, Version 12.0.2, CambridgeSoft Corp., Cambridge Mass.), and biological activity. Where more than one name is associated with a Formula I or I′ compound or intermediate in Tables 1 and 2 and the Experimental Procedures, the chemical structure shall define the compound. Assignment of configuration at chiral centers in separated stereoisomers may be tentative, and depicted in Tables 1 and 2 structures for illustrative purposes, before stereochemistry is definitively established, such as from x-ray crystallographic data. In some cases, stereoisomers are separated and tested for biological activity before the stereochemistry of the separated stereoisomers is determined; and stereochemistry in some instances was inferred based on structure-activity relationship (SAR) knowledge from previous compounds. In some cases, the compounds are tested as racemic or diastereomeric mixtures. Where more than one potency value is entered on a row, separated stereoisomers represented by the structure and name on that row were tested. Exemplary compounds of Formula I or I′ in Table 3 can be prepared using methods known in the art or according to procedures similar to those described in the Schemes, General Procedures, and Examples 101-500. Biological activities of compounds in Table 3 can be tested in biological assays, for example, those in Examples 901, 902 and 903 described herein.

Which IC50 does the source give for `Cc1ccc2c(NC(=O)[C@H]3CC3C3CC3)cccc2c1Oc1ncccc1-c1ccnc(N[C@H]2CCCNC2)n1` (single isomer, unassigned) [Example 273] here?
Its IC50 is 305 nM.

Which IC50 does the source give for `Cc1ccc2c(NC(=O)[C@@H]3CC34CCC4)c(F)ccc2c1Oc1ncccc1-c1ccnc(N[C@H]2CCCNC2)n1` (single isomer, unassigned) [Example 387] here?
The IC50 was 28.3 nM.

For `Cc1ccc2c(N3CCN(C)S3(=O)=O)cccc2c1Oc1ncccc1-c1ccnc(N[C@H]2CCCNC2)n1` [Example 247, (S)-2-Methyl-5-(6-methyl-5-((3-(2-(piperidin-3-ylamino)pyrimidin-4-yl)pyridin-2-yl)oxy)naphthalen-1-yl)-1,2,5-thiadiazolidine 1,1-dioxide], which IC50 is on record?
The IC50 was 360 nM.

`Cc1ccc2c(NS(=O)(=O)Cc3ccccc3C(F)(F)F)cccc2c1Oc1ncccc1-c1ccnc(N[C@H]2CCCNC2)n1` [Example 142, (S)—N-(6-Methyl-5-((3-(2-(piperidin-3-ylamino)pyrimidin-4-yl)pyridin-2-yl)oxy)naphthalen-1-yl)-1-(2-(trifluoromethyl)phenyl)methanesulfonamide] was tested. Which IC50 did it give?
Its IC50 is 8 nM.

Which IC50 does the source give for `Cc1ccc2c(NS(=O)(=O)[C@H](C)c3ccccc3)cccc2c1Oc1ncccc1-c1ccnc(N[C@H]2CCCNC2)n1` [Example 215, (R)—N-(6-methyl-5-((3-(2-((S)-piperidin-3-ylamino)pyrimidin-4-yl)pyridin-2-yl)oxy)naphthalen-1-yl)-1-phenylethanesulfonamide] here?
Its IC50 is 211 nM.

How did the IC50 turn out when `CCc1cnn(-c2cccc3c(Oc4ncccc4-c4ccnc(N[C@H]5CCCNC5)n4)c(C)ccc23)c1` [Example 290, (S)-4-(2-((5-(4-Ethyl-1H-pyrazol-1-yl)-2-methylnaphthalen-1-yl)oxy)pyridin-3-yl)-N-(piperidin-3-yl)pyrimidin-2-amine] was run?
The IC50 was 409 nM.

With `Cc1ccc2c(NC(=O)[C@H]3CCC(C)C3)cccc2c1Oc1ncccc1-c1ccnc(N[C@H]2CCCNC2)n1` (single isomer, unassigned) [Example 278] as the molecule, how does the IC50 read?
The IC50 was 313 nM.

For `CCCS(=O)(=O)Nc1cccc2c(Oc3ncccc3-c3ccnc(N[C@@H]4CNCC[C@H]4C)n3)c(C)ccc12` (single isomer, unassigned) [Example 169], which IC50 is on record?
The IC50 was 121 nM.

How did the IC50 turn out when `Cc1ccc2c(N3CCC4(CCCCC4)C3=O)cccc2c1Oc1ncccc1-c1ccnc(N[C@H]2CCCNC2)n1` [Example 308, (S)-2-(6-Methyl-5-((3-(2-(piperidin-3-ylamino)pyrimidin-4-yl)pyridin-2-yl)oxy)naphthalen-1-yl)-2-azaspiro[4.5]decan-1-one] was run?
The IC50 was 211 nM.

For `Cc1ccc2c(NC(=O)[C@H]3C[C@H]3F)cccc2c1Oc1ncccc1-c1ccnc(N[C@H]2CCCNC2)n1` [Example 222, (1R,2R)-2-Fluoro-N-[6-methyl-5-[[3-[2-[[(3S)-3-piperidyl]amino]pyrimidin-4-yl]-2-pyridyl]oxy]-1-naphthyl]cyclopropanecarboxamide], which IC50 is on record?
The IC50 was 93 nM.

How did the IC50 turn out when `CCCS(=O)(=O)Nc1cccc2c(Oc3ncccc3-c3ccnc(N[C@H]4CCCNC4)n3)c(C)ccc12` [Example 104, (S)—N-(6-Methyl-5-(3-(2-(piperidin-3-ylamino)pyrimidin-4-yl)pyridin-2-yloxy)naphthalen-1-yl)propane-1-sulfonamide hydrochloride] was run?
Its IC50 is 131 nM.

For `CCCS(=O)(=O)Nc1cccc2c(Oc3ncccc3-c3ccnc(N[C@@H]4CNC[C@H](C)C4)n3)c(C)ccc12` [Example 361, N-(6-Methyl-5-((3-(2-(((3S,5R)-5-methylpiperidin-3-yl)amino)pyrimidin-4-yl)pyridin-2-yl)oxy)naphthalen-1-yl)propane-1-sulfonamide], which IC50 is on record?
Its IC50 is 85.1 nM.

Which IC50 does the source give for `Cc1ccc2c(NS(=O)(=O)Cc3ccccc3CF)cccc2c1Oc1ncccc1-c1ccnc(N[C@H]2CCCNC2)n1` [Example 170, (S)-1-(2-(Fluoromethyl)phenyl)-N-(6-methyl-5-((3-(2-(piperidin-3-ylamino)pyrimidin-4-yl)pyridin-2-yl)oxy)naphthalen-1-yl)methanesulfonamide] here?
The IC50 was 15 nM.

How did the IC50 turn out when `Cc1ccc2c(NS(=O)(=O)Cc3ccc(F)cc3F)cccc2c1Oc1ncccc1-c1ccnc(N[C@H]2CCCNC2)n1` [Example 157, (S)-1-(2,4-Difluorophenyl)-N-(6-methyl-5-((3-(2-(piperidin-3-ylamino)pyrimidin-4-yl)pyridin-2-yl)oxy)naphthalen-1-yl)methanesulfonamide] was run?
Its IC50 is 8 nM.

How did the IC50 turn out when `Cc1ccc2c(NC[C@H](O)CF)cccc2c1Oc1ncccc1-c1ccnc(N[C@H]2CCCNC2)n1` (single isomer, unassigned) [Example 333] was run?
Its IC50 is 44.6 nM.

`Cc1ccc2c(NS(=O)(=O)C3CCCCC3)cccc2c1Oc1ncccc1-c1ccnc(N[C@H]2CCCNC2)n1` [Example 140, (S)—N-(6-Methyl-5-((3-(2-(piperidin-3-ylamino)pyrimidin-4-yl)pyridin-2-yl)oxy)naphthalen-1-yl)cyclohexanesulfonamide] was tested. Which IC50 did it give?
Its IC50 is 177 nM.

How did the IC50 turn out when `Cc1ccc2c(NCC(C)C#N)cccc2c1Oc1ncccc1-c1ccnc(N[C@H]2CCCNC2)n1` (single isomer, unassigned) [Example 382] was run?
The IC50 was 62.3 nM.

`Cc1ccc2c(NC(=O)CC(C)(C)C)c(F)ccc2c1Oc1ncccc1-c1ccnc(N[C@H]2CCCNC2)n1` [Example 275, (S)—N-(2-Fluoro-6-methyl-5-((3-(2-(piperidin-3-ylamino)pyrimidin-4-yl)pyridin-2-yl)oxy)naphthalen-1-yl)-3,3-dimethylbutanamide] was tested. Which IC50 did it give?
Its IC50 is 75 nM.

For `Cc1ccc2c(NC(=O)C3CCCC3(F)F)cccc2c1Oc1ncccc1-c1ccnc(N[C@H]2CCCNC2)n1` (stereo partly drawn) [Example 251, 2,2-Difluoro-N-(6-methyl-5-((3-(2-(((S)-piperidin-3-yl)amino)pyrimidin-4-yl)pyridin-2-yl)oxy)naphthalen-1-yl)cyclopentane-1-carboxamide], which IC50 is on record?
The IC50 was 145 nM.

How did the IC50 turn out when `C=CS(=O)(=O)Nc1cccc2c(Oc3ncccc3-c3ccnc(N[C@H]4CCCNC4)n3)c(C)ccc12` [Example 147, (S)—N-(6-Methyl-5-((3-(2-(piperidin-3-ylamino)pyrimidin-4-yl)pyridin-2-yl)oxy)naphthalen-1-yl)ethenesulfonamide] was run?
The IC50 was 139 nM.

How did the IC50 turn out when `Cc1ccc2c(NC(=O)CC3(C)CC3)cccc2c1Oc1ncccc1-c1ccnc(N[C@H]2CCCNC2)n1` [Example 268, (S)—N-(6-Methyl-5-((3-(2-(piperidin-3-ylamino)pyrimidin-4-yl)pyridin-2-yl)oxy)naphthalen-1-yl)-2-(1-methylcyclopropyl)acetamide] was run?
The IC50 was 257 nM.

same assay, conditions: Table 2; read-out: XBP1s-luc 293 LUC (IC50)

With `Cc1ccc2c(NS(=O)(=O)CCC(F)(F)F)c(F)ccc2c1Oc1ncccc1-c1ccnc(N[C@@H]2CNC[C@@H](F)C2)n1` (single isomer, unassigned) [Example 432, hydrochloride] as the molecule, how does the IC50 read?
Its IC50 is 28 nM.

For `Cc1ccc2c(NS(=O)(=O)Cc3ccc(OC(F)(F)F)cc3)c(F)ccc2c1Oc1ncccc1-c1ccnc(N[C@H]2CCCNC2)n1` [Example 419, (S)—N-(2-Fluoro-6-methyl-5-((3-(2-(piperidin-3-ylamino)pyrimidin-4-yl)pyridin-2-yl)oxy)naphthalen-1-yl)-1-(4-(trifluoromethoxy)phenyl)methanesulfonamide hydrochloride], which IC50 is on record?
Its IC50 is 129 nM.

How did the IC50 turn out when `O=S(=O)(CCC(F)(F)F)Nc1cccc2c(Oc3ncccc3-c3ccnc(N[C@H]4CCCNC4)n3)cccc12` [Example 451] was run?
The IC50 was 345 nM.

How did the IC50 turn out when `CO[C@@H](C)CS(=O)(=O)Nc1c(F)ccc2c(Oc3ncccc3-c3ccnc(N[C@H]4CCCNC4)n3)c(C)ccc12` (single isomer, unassigned) [Example 393, hydrochloride] was run?
The IC50 was 76 nM.

For `Cc1ccc2c(NC[C@@H](O)C(F)F)cccc2c1Oc1ncccc1-c1ccnc(N[C@H]2CCCNC2)n1` (single isomer, unassigned) [Example 476, hydrochloride], which IC50 is on record?
The IC50 was 129 nM.

How did the IC50 turn out when `Cc1ccc2c(N[C@H]3CCC[C@@H]3O)cccc2c1Oc1ncccc1-c1ccnc(N[C@H]2CCCNC2)n1` (single isomer, unassigned) [Example 396, hydrochloride] was run?
Its IC50 is 270 nM.

How did the IC50 turn out when `Cc1nc(CS(=O)(=O)Nc2c(F)ccc3c(Oc4ncccc4-c4ccnc(N[C@H]5CNC[C@H](F)C5)n4)c(C)ccc23)cs1` (single isomer, unassigned) [Example 491, hydrochloride] was run?
Its IC50 is 117 nM.

With `Cc1ccc2c(NS(=O)(=O)N(C)CC(F)(F)F)c(F)ccc2c1Oc1ncccc1-c1ccnc(N[C@H]2CCCNC2)n1` [Example 427, 4-[2-[[6-Fluoro-2-methyl-5-[[methyl(2,2,2-trifluoroethyl)sulfamoyl]amino]-1-naphthyl]oxy]-3-pyridyl]-2-[[(3S)-3-piperidyl]amino]pyrimidine hydrochloride] as the molecule, how does the IC50 read?
Its IC50 is 6 nM.
